Consider four compounds from patent publication US4536518A, “Antidepressant derivatives of cis-4-phenyl-1,2,3,4-tetrahydro-1-naphthalenamine” (priority 1979, dated 1985).

For orientation: IC50 means the concentration that gives 50% inhibition. Higher therefore signals weaker potency.

Structures can show the parent of a compound that is named as a salt. A value given as a limit tells only on which side of the number the result lay.

The subject of assay [1] is 5-hydroxytryptophan-induced tremors in mice. The experiment in a line: Potentiation of 5-hydroxytryptophan-induced behavioral symptoms (tremors) in vivo. Set-up: species or system mouse (Swiss-Webster CD). The settings on record: Mus musculus, po, 1 h, read-out: ED50 (tremors).
Description: The mice were rated for the presence of this symptom by a "blinded observer" at 10-20 min. after 5HTP treatment.
Assay [2] relates to Synaptosomal Uptake of Dopamine (DA), rat corpus striatum. The experiment in a line: Blockade of synaptosomal uptake of dopamine (DA) in vitro. Type of assay: biochemical, rat (Sprague-Dawley CD). The note with it: Examples 26-49. The procedure:
(§1) Sprague-Dawley CD male rats weighing 180-220 g. (Charles River Laboratories, Inc.; Wilmington, Mass.) were used in this procedure. A crude synaptosomal fraction of rat corpus striatum (for 5HT and DA uptake) or hypothalmus (for NE uptake) tissue was prepared by homogenizing tissue (25 ml./g. wet) in ice-cold 0.32M sucrose containing 1 mg./ml. glucose, 0.0001M EDTA and tris(hydroxymethyl)aminomethane to pH 7.4. The homogenate was centrifuged at 1000 × g for 10 min. at 0°-4° C., the pellet discarded and the supernatant centrifuged at 17,000 × g for 20 min. at 0°-4° C. The resulting pellet was resuspended in the ice-cold 0.32M sucrose pH 7.4 solution at 10 ml./g. original tissue (wet) for corpus striatum and 5 ml./g. original tissue (wet) for hypothalmus. […] After incubation, the mixtures were filtered through 0.45 micron Millipore filters and the filters washed with the incubation buffer. […] Uptake was calculated as picomoles 5HT, DA or NE per mg. protein (protein was determined by measurement with Folin phenol reagent).

In assay [3] the test system is Synaptosomal Uptake of Serotonin (5HT), rat corpus striatum. The experiment in a line: Blockade of synaptosomal uptake of serotonin (5HT) in vitro. The format is biochemical, rat (Sprague-Dawley CD). The note with it: 5HT uptake, Examples 26-49. As to the method: as §1
Assay [4] relates to Synaptosomal Uptake of Norepinephrine (NE), rat hypothalmus. The assay can be described thus: Blockade of synaptosomal uptake of norepinephrine (NE) in vitro. The format is biochemical, rat (Sprague-Dawley CD). The settings on record: Examples 26-49. The procedure: as §1
In assay [5] the test system is Behavioral Despair in mice. The experiment in a line: Reduction of behavioral despair in vivo (modified Porsolt method). More on the design: species or system mouse (Swiss-Webster CD). The settings on record: Mus musculus, sc; mice, subcutaneous; read-out: MPE50, footnoted no observed effect on immobility. The procedure: A modification of the procedure described by Porsolt et al., Arch. Int. […] (Charles River Laboratories, Inc.; Wilmington, Mass.) were housed under standard laboratory conditions for at least one week prior to experimentation. Groups of 10 mice were then injected subcutaneously with either a given dosage of the named test compound or vehicle (5% Emulphor: 5% ethanol: 90% normal saline). One hour later the mice were placed individually in 1 liter beakers containing 7 cm. of 25° C. water. Beginning at 2 min. after immersion, each mouse was observed every 30 sec. for the presence of immobility, characterized as floating motionless in the water. A total of ten observations were made, each being scored as "0=animal moving, swimming, attempting to escape" or "1=animal immobile". The number of positive observations for each mouse was then totaled and a mean immobility score calculated for the group of ten.

A further assay concerns uptake of serotonin. The note with it: background; cited from earlier work.
For assay [6], the system named is synaptosomal norepinephrine uptake. The settings on record: prior art; cited from earlier work.

With `CN(C)[C@H]1CC[C@@H](c2cccc(C(F)(F)F)c2)c2ccccc21` (relative stereo) [Example 22, Cis-(1S)(1R)-N,N-dimethyl-4-(3-trifluoromethylphenyl)-1,2,3,4-tetrahydro-1-naphthalenamine Maleate], the values for the ED50 in assay [1] and in assay [5] were 3.2 to 10 mg/kg and > 56 mg/kg, respectively. In addition, the IC50 in assay [2] worked out at 7 µM; in assay [3], 0.19 µM; in assay [4], 0.89 µM.
`COCCCC/C(=N\OCCN)c1ccc(C(F)(F)F)cc1` [fluvoxamine]: the “serotonin uptake blockade compared to norepinephrine blockade (in words)” value in the assay on uptake of serotonin is given as “selectively block the uptake of serotonin”.
With `CN[C@@H]1CC[C@@H](c2ccccc2)c2ccccc21` [trans-(1R)-N-methyl-4-phenyl-1,2,3,4-tetrahydro-1-naphthalenamine], in assay [6], the “synaptosomal norepinephrine uptake blocking activity (in words)” value is recorded as “excellent”.
Consider `CN(C)C/C=C(/c1ccc(Br)cc1)c1cccnc1` [zimelidine], for which the “serotonin uptake blockade compared to norepinephrine blockade (in words)” value in the assay with uptake of serotonin is given as “selectively block the uptake of serotonin”.
